How the values were obtained:
Type in all cases: in vivo
Plutella xylostella [1] = test: Example B12: Plutella xylostella (Diamondback Moth), 96-well artificial diet; details: 216 h, application rate of 500 ppm, eggs, 9 days after infestation
Description: Example B12: Plutella xylostella (Diamondback Moth)
96-well microtiter plates containing artificial diet were treated with aqueous test solutions, prepared from 10′000 ppm DMSO stock solutions, by a liquid handling robot. After drying, eggs (˜30 per well) were infested onto a netted lid which was suspended above the diet. The eggs hatch and L1 larvae move down to the diet. The samples were assessed for mortality 9 days after infestation.

Chilo suppressalis = test: Example B4: Chilo suppressalis (Striped Rice Stemborer); details: 144 h, application rate of 200 ppm, artificial diet, L2 larvae, 6 days after infestation, read-out: control in at least one of the three categories (mortality, anti-feedant or growth inhibition)
Description: Example B4: Chilo suppressalis (Striped Rice Stemborer)
24-well microtiter plates with artificial diet were treated with aqueous test solutions prepared from 10′000 ppm DMSO stock solutions by pipetting. After drying, the plates were infested with L2 larvae (6-8 per well). The samples were assessed for mortality, anti-feeding effect, and growth inhibition in comparison to untreated samples 6 days after infestation. Control of Chilo suppressalis by a test sample is given when at least one of the categories mortality, anti-feedant effect, and growth inhibition is higher than the untreated sample.

Plutella xylostella [2] = test: Example B5: Plutella xylostella (Diamond Back Moth); details: 192 h, application rate of 200 ppm, 24-well artificial diet, eggs, 8 days after infestation, read-out: control in at least one of the two categories (mortality or growth inhibition)
Description: Example B5: Plutella xylostella (Diamond Back Moth)
24-well microtiter plates with artificial diet were treated with aqueous test solutions prepared from 10′000 ppm DMSO stock solutions by pipetting. After drying, Plutella eggs were pipetted through a plastic stencil onto a gel blotting paper and the plate was closed with it. The samples were assessed for mortality and growth inhibition in comparison to untreated samples 8 days after infestation.

Diabrotica balteata = test: Example B1: Diabrotica balteata (Corn Root Worm); details: 96 h, application rate of 200 ppm, sprayed maize sprouts, L2 larvae, 4 days after infestation, read-out: control in at least one of the two categories (mortality or growth inhibition)
Description: Example B1: Diabrotica balteata (Corn Root Worm)
Maize sprouts placed onto an agar layer in 24-well microtiter plates were treated with aqueous test solutions prepared from 10′000 ppm DMSO stock solutions by spraying. After drying, the plates were infested with L2 larvae (6 to 10 per well). The samples were assessed for mortality and growth inhibition in comparison to untreated samples 4 days after infestation.

Spodoptera littoralis = test: Example B9: Spodoptera littoralis (Egyptian Cotton Leaf Worm), cotton leaf disc spray; details: foliar, 72 h, application rate of 200 ppm, sprayed cotton leaf discs, L1 larvae, 3 days after infestation, read-out: control in at least one of the three categories (mortality, anti-feedant or growth inhibition)

CC(NC(=O)c1cc(C2CC2)cc(C(F)(F)F)c1)c1nccnc1-c1ccccn1 (stereo not drawn) [P33, 3-cyclopropyl-N-[1-[3-(2-pyridyl)pyrazin-2-yl]ethyl]-5-(trifluoromethyl)benzamide]
≥ 80%: mortality at 500 ppm (Plutella xylostella [1]) | percent control (mortality, anti-feedant effect or growth inhibition) at 200 ppm (Chilo suppressalis) | percent control (mortality or growth inhibition) at 200 ppm (Plutella xylostella [2]) | percent control (mortality or growth inhibition) at 200 ppm (Diabrotica balteata)

CC(NC(=O)c1cc(C(F)(F)F)cc(C2(C#N)CC2)c1)c1nccnc1-c1ccc(Br)cn1 (stereo not drawn) [P24, N-[1-[3-(5-bromo-2-pyridyl)pyrazin-2-yl]ethyl]-3-(1-cyanocyclopropyl)-5-(trifluoromethyl)benzamide]
≥ 80%: mortality at 500 ppm (Plutella xylostella [1]) | percent control (mortality, anti-feedant effect or growth inhibition) at 200 ppm (Spodoptera littoralis) | percent control (mortality, anti-feedant effect or growth inhibition) at 200 ppm (Chilo suppressalis) | percent control (mortality or growth inhibition) at 200 ppm (Plutella xylostella [2]) | percent control (mortality or growth inhibition) at 200 ppm (Diabrotica balteata)

CC(NC(=O)c1cc(C2CC2)cc(C(F)(F)F)c1)c1nccnc1-c1ccc(Br)cn1 (stereo not drawn) [P29, N-[1-[3-(5-bromo-2-pyridyl)pyrazin-2-yl]ethyl]-3-cyclopropyl-5-(trifluoromethyl)benzamide]
≥ 80%: mortality at 500 ppm (Plutella xylostella [1]) | percent control (mortality or growth inhibition) at 200 ppm (Plutella xylostella [2])

CC(NC(=O)c1cc(C(F)(F)F)nc(C2(C#N)CC2)c1)c1nccnc1-c1ccc(Cl)cn1 (stereo not drawn) [P16, N-[1-[3-(5-chloro-2-pyridyl)pyrazin-2-yl]ethyl]-2-(1-cyanocyclopropyl)-6-(trifluoromethyl)pyridine-4-carboxamide]
≥ 80%: mortality at 500 ppm (Plutella xylostella [1]) | percent control (mortality, anti-feedant effect or growth inhibition) at 200 ppm (Spodoptera littoralis) | percent control (mortality, anti-feedant effect or growth inhibition) at 200 ppm (Chilo suppressalis) | percent control (mortality or growth inhibition) at 200 ppm (Plutella xylostella [2]) | percent control (mortality or growth inhibition) at 200 ppm (Diabrotica balteata)

CC(NC(=O)c1cc(C2CC2)cc(C(F)(F)F)c1)c1nccnc1-c1ccc(F)cn1 (stereo not drawn) [P40, 3-cyclopropyl-N-[1-[3-(5-fluoro-2-pyridyl)pyrazin-2-yl]ethyl]-5-(trifluoromethyl)benzamide]
≥ 80%: mortality at 500 ppm (Plutella xylostella [1]) | percent control (mortality, anti-feedant effect or growth inhibition) at 200 ppm (Spodoptera littoralis) | percent control (mortality, anti-feedant effect or growth inhibition) at 200 ppm (Chilo suppressalis) | percent control (mortality or growth inhibition) at 200 ppm (Plutella xylostella [2]) | percent control (mortality or growth inhibition) at 200 ppm (Diabrotica balteata)

CC(NC(=O)c1cc(C(F)(F)F)cc(C(F)(F)C2CC2)c1)c1nccnc1-c1ccc(F)cn1 (stereo not drawn) [P38, 3-[cyclopropyl (difluoro)methyl]-N-[1-[3-(5-fluoro-2-pyridyl)pyrazin-2-yl]ethyl]-5-(trifluoromethyl)benzamide]
≥ 80%: mortality at 500 ppm (Plutella xylostella [1]) | percent control (mortality or growth inhibition) at 200 ppm (Plutella xylostella [2])

CC(NC(=O)c1cc(C(F)(F)F)cc(C2(C#N)CC2)c1)c1nccnc1-c1ccc(Cl)cn1 (stereo not drawn) [P17, N-[1-[3-(5-chloro-2-pyridyl)pyrazin-2-yl]ethyl]-3-(1-cyanocyclopropyl)-5-(trifluoromethyl)benzamide]
≥ 80%: mortality at 500 ppm (Plutella xylostella [1]) | percent control (mortality, anti-feedant effect or growth inhibition) at 200 ppm (Spodoptera littoralis) | percent control (mortality, anti-feedant effect or growth inhibition) at 200 ppm (Chilo suppressalis) | percent control (mortality or growth inhibition) at 200 ppm (Plutella xylostella [2]) | percent control (mortality or growth inhibition) at 200 ppm (Diabrotica balteata)

CC(NC(=O)c1cc(C(F)(F)F)nc(C2(C#N)CC2)c1)c1nccnc1-c1ncc(C2CC2)cn1 (stereo not drawn) [P36, 2-(1-cyanocyclopropyl)-N-[1-[3-(5-cyclopropylpyrimidin-2-yl)pyrazin-2-yl]ethyl]-6-(trifluoromethyl)pyridine-4-carboxamide]
≥ 80%: mortality at 500 ppm (Plutella xylostella [1]) | percent control (mortality, anti-feedant effect or growth inhibition) at 200 ppm (Spodoptera littoralis) | percent control (mortality, anti-feedant effect or growth inhibition) at 200 ppm (Chilo suppressalis) | percent control (mortality or growth inhibition) at 200 ppm (Plutella xylostella [2]) | percent control (mortality or growth inhibition) at 200 ppm (Diabrotica balteata)

CC(NC(=O)c1cc(C2CC2)cc(C(F)(F)F)c1)c1nccnc1-c1ncc(C2CC2)cn1 (stereo not drawn) [P35, 3-cyclopropyl-N-[1-[3-(5-cyclopropylpyrimidin-2-yl)pyrazin-2-yl]ethyl]-5-(trifluoromethyl)benzamide]
≥ 80%: mortality at 500 ppm (Plutella xylostella [1]) | percent control (mortality, anti-feedant effect or growth inhibition) at 200 ppm (Spodoptera littoralis) | percent control (mortality, anti-feedant effect or growth inhibition) at 200 ppm (Chilo suppressalis) | percent control (mortality or growth inhibition) at 200 ppm (Plutella xylostella [2]) | percent control (mortality or growth inhibition) at 200 ppm (Diabrotica balteata)

C[C@H](NC(=O)c1cc(C(F)(F)F)cc(C(F)(F)C2CC2)c1)c1nccnc1-c1ccc(Br)cn1 [P42, N-[(1S)-1-[3-(5-bromo-2-pyridyl)pyrazin-2-yl]ethyl]-3-[cyclopropyl(difluoro)methyl]-5-(trifluoromethyl)benzamide]
≥ 80%: mortality at 500 ppm (Plutella xylostella [1]) | percent control (mortality, anti-feedant effect or growth inhibition) at 200 ppm (Spodoptera littoralis) | percent control (mortality, anti-feedant effect or growth inhibition) at 200 ppm (Chilo suppressalis) | percent control (mortality or growth inhibition) at 200 ppm (Plutella xylostella [2]) | percent control (mortality or growth inhibition) at 200 ppm (Diabrotica balteata)

CC(NC(=O)c1cc(C(F)(F)F)nc(C2(C#N)CC2)c1)c1nccnc1-c1ccc(F)cn1 (stereo not drawn) [P27, 2-(1-cyanocyclopropyl)-N-[1-[3-(5-fluoro-2-pyridyl)pyrazin-2-yl]ethyl]-6-(trifluoromethyl)pyridine-4-carboxamide]
≥ 80%: mortality at 500 ppm (Plutella xylostella [1]) | percent control (mortality, anti-feedant effect or growth inhibition) at 200 ppm (Chilo suppressalis) | percent control (mortality or growth inhibition) at 200 ppm (Plutella xylostella [2])

CC(NC(=O)c1cc(C(F)(F)F)cc(S(=O)(=O)C(F)(F)F)c1)c1nccnc1-c1ccccn1 (stereo not drawn) [P13, N-[1-[3-(2-pyridyl)pyrazin-2-yl]ethyl]-3-(trifluoromethyl)-5-(trifluoromethylsulfonyl) benzamide]
≥ 80%: mortality at 500 ppm (Plutella xylostella [1]) | percent control (mortality, anti-feedant effect or growth inhibition) at 200 ppm (Spodoptera littoralis) | percent control (mortality, anti-feedant effect or growth inhibition) at 200 ppm (Chilo suppressalis) | percent control (mortality or growth inhibition) at 200 ppm (Plutella xylostella [2]) | percent control (mortality or growth inhibition) at 200 ppm (Diabrotica balteata)

CC(NC(=O)c1cc(C2CC2)cc(C(F)(F)F)c1)c1nccnc1-c1ccc(Cl)cn1 (stereo not drawn) [P18, N-[1-[3-(5-chloro-2-pyridyl)pyrazin-2-yl]ethyl]-3-cyclopropyl-5-(trifluoromethyl)benzamide]
≥ 80%: mortality at 500 ppm (Plutella xylostella [1]) | percent control (mortality, anti-feedant effect or growth inhibition) at 200 ppm (Chilo suppressalis) | percent control (mortality or growth inhibition) at 200 ppm (Plutella xylostella [2])

CC(NC(=O)c1cc(C2CC2)cc(C(F)(F)F)c1)c1nccnc1-c1ncc(OC(F)F)cn1 (stereo not drawn) [P34, 3-cyclopropyl-N-[1-[3-[5-(difluoromethoxy)pyrimidin-2-yl]pyrazin-2-yl]ethyl]-5-(trifluoromethyl)benzamide]
≥ 80%: mortality at 500 ppm (Plutella xylostella [1]) | percent control (mortality, anti-feedant effect or growth inhibition) at 200 ppm (Spodoptera littoralis) | percent control (mortality, anti-feedant effect or growth inhibition) at 200 ppm (Chilo suppressalis) | percent control (mortality or growth inhibition) at 200 ppm (Plutella xylostella [2]) | percent control (mortality or growth inhibition) at 200 ppm (Diabrotica balteata)

CC(NC(=O)c1cc(C(F)(F)F)nc(C2(C#N)CC2)c1)c1nccnc1-c1ccc(Br)cn1 (stereo not drawn) [P28, N-[1-[3-(5-bromo-2-pyridyl)pyrazin-2-yl]ethyl]-2-(1-cyanocyclopropyl)-6-(trifluoromethyl)pyridine-4-carboxamide]
≥ 80%: mortality at 500 ppm (Plutella xylostella [1]) | percent control (mortality, anti-feedant effect or growth inhibition) at 200 ppm (Spodoptera littoralis) | percent control (mortality, anti-feedant effect or growth inhibition) at 200 ppm (Chilo suppressalis) | percent control (mortality or growth inhibition) at 200 ppm (Plutella xylostella [2]) | percent control (mortality or growth inhibition) at 200 ppm (Diabrotica balteata)

CC(NC(=O)c1cc(C(F)(F)F)cc(S(=O)(=O)C(F)(F)F)c1)c1nccnc1-c1ccc(F)cn1 (stereo not drawn) [P12, N-[1-[3-(5-fluoro-2-pyridyl)pyrazin-2-yl]ethyl]-3-(trifluoromethyl)-5-(trifluoromethylsulfonyl) benzamide]
≥ 80%: mortality at 500 ppm (Plutella xylostella [1]) | percent control (mortality, anti-feedant effect or growth inhibition) at 200 ppm (Chilo suppressalis)

CC(NC(=O)c1cc(C(F)(F)F)cc(C(F)(F)C2CC2)c1)c1nccnc1-c1ccccn1 (stereo not drawn) [P20, 3-[cyclopropyl (difluoro)methyl]-N-[1-[3-(2-pyridyl)pyrazin-2-yl]ethyl]-5-(trifluoromethyl) benzamide]
≥ 80%: mortality at 500 ppm (Plutella xylostella [1]) | percent control (mortality, anti-feedant effect or growth inhibition) at 200 ppm (Spodoptera littoralis) | percent control (mortality, anti-feedant effect or growth inhibition) at 200 ppm (Chilo suppressalis) | percent control (mortality or growth inhibition) at 200 ppm (Plutella xylostella [2]) | percent control (mortality or growth inhibition) at 200 ppm (Diabrotica balteata)

CC(NC(=O)c1cc(C(F)(F)F)cc(S(=O)(=O)C(F)(F)F)c1)c1nccnc1-c1ncc(C2CC2)cn1 (stereo not drawn) [P11, N-[1-[3-(5-cyclopropylpyrimidin-2-yl)pyrazin-2-yl]ethyl]-3-(trifluoromethyl)-5-(trifluoromethylsulfonyl) benzamide]
≥ 80%: mortality at 500 ppm (Plutella xylostella [1]) | percent control (mortality, anti-feedant effect or growth inhibition) at 200 ppm (Spodoptera littoralis) | percent control (mortality, anti-feedant effect or growth inhibition) at 200 ppm (Chilo suppressalis) | percent control (mortality or growth inhibition) at 200 ppm (Plutella xylostella [2])
